Test results as given in paper PMC9747717, “A novel small molecule inhibitor of human Drp1” (Scientific Reports, 2022).
“And” between values parts separate entries of the source, which are not always exact repeats. Equal entries are not always repeated.

What was measured:
HL-1 cells = assay: Mitochondrial morphology in HL-1 cells under simulated ischaemia-reperfusion injury; type: cell-based, Murine; settings: 50 µM, DMSO 63.14 ± 8.12%
Description: HL-1 cells were plated in 24-well plate pre-coated with 5 μg/mL human fibronectin (Merck Millipore, MA, USA) in 0.02% porcine gelatin solution (Sigma-Aldrich, MA, USA). Cells were maintained in Claycomb media (Sigma-Aldrich) supplemented with 0.1 mM (±)-norepinephrine (+)-bitartrate salt (Sigma-Aldrich), 2 mM GlutaMAX (Thermo Fisher Scientific, MA, USA), 100 μg/mL penicillin/streptomycin (Thermo Fisher Scientific) and 10% non-heat inactivated foetal bovine serum (FBS) (Bovogen Biologicals, Victoria, Australia). The simulated ischaemia–reperfusion injury was performed as described in Rosdah et al.[25]. […] Cell death was determined by staining with 1 μg/mL propidium iodide and 3 μg/mL Hoechst 33258. The number of dead cells (propidium iodide positive) was counted and expressed as a percentage over total number of cells (Hoechst 33258 positive). At least 100 cells were counted per group for each independent experiment.
Mitochondrial morphology in HL-1 cells were visualised by immunostaining of mitochondrial Hsp60 antibody (Abcam, MA, USA). Images were acquired using Olympus BX60 fluorescence microscope at 600 × magnification and analysed using Fiji imaging software (ImageJ v1.53c). […] At least 100 cells were analysed for each treatment group.

[1] = Dynamic light scattering (DLS) compound aggregation threshold; type: physicochemical
Description: Identification of compound aggregation threshold was performed using DLS Zetasizer Nano ZS (Malvern Pananalytical, Worcestershire, UK). 100 µL of samples were measured in low-volume plastic micro cuvettes (BrandTech Scientific, CT, USA) at 25 °C using default size measurement settings. […] Mdivi-1 and DRP1i27 were serially diluted three-fold from 500 µM until the volume distribution of particle size was similar to that of the DMSO control. To specifically determine aggregation threshold, further dilution was carried out between concentrations where aggregation was first observed.

human Drp1 isoform 3 = molecular target: T1, human Drp1 isoform 3 (Homo sapiens, UniProt O00429); assay: Surface plasmon resonance (SPR) binding; settings: human Drp1 isoform 3, 25 °C, 2% DMSO
T1 construct: His tag; made in house; host or cells: E. coli Rosetta (DE3), pET21b vector
Description: The recombinant human Drp1 protein (His-tagged human Drp1 isoform 3, kindly provided by Professor Michael Ryan, Monash University, Australia) was generated as described previously. Briefly, cDNA for human Drp1 (isoform 3) was cloned into pET21b vector and transformed in Rosetta (DE3) competent cells (Novagen, MA, Merck Millipore). Transformed cells were propagated in Luria–Bertani broth and protein expression was initiated by the addition of 0.5 mM isopropyl β-D-1-thiogalactopyranoside. […]
All SPR experiments were performed on a Biacore T200 instrument (GE Healthcare Life Sciences, Uppsala, Sweden) at 25 °C in the presence of HEPES buffered saline containing 20 mM phosphate (pH 7.5), 137 mM NaCl, 2.7 mM KCl and 0.05% Tween-20 (HBS + P). […] Sensor surface was activated with 1:1 mixture of 0.4 M EDC and 0.1 M NHS for 7 min, followed by incremental injections of the protein to reach ~ 8000 RU (flow rate 10 μL/minute) for a calculated maximum analyte binding capacity (Rmax) of 30–50 RU. […]
Compounds were dissolved in 100% dimethyl sulfoxide (DMSO) and then added to HBS + P at a final DMSO concentration of 2%. […] SPR results were analysed using the Biacore T200 Evaluation Software v.1.

[2] = system: Human foreskin fibroblasts (HFF-1); assay: Hydrogen peroxide-induced oxidative stress, cell death; type: cell-based; settings: 50 µM compound, 3 mM hydrogen peroxide, compared to DMSO control
Description: Human foreskin fibroblasts (HFF-1, ATCC, VA, USA) were treated with 3 mM hydrogen peroxide plus vehicle control (0.1% DMSO), Mdivi-1 (50 µM) or individual compound at 50 µM. After 2.5–3 h of incubation at 37 °C in a humidified 5% CO2 incubator, cells were stained with 1 μg/mL propidium iodide and 3 μg/mL Hoechst 33258 to determine the percentage of dead cells. Images were captured at 20 × objective with an inverted microscope (Olympus IX71). The number of dead cells (propodium iodide positive) was counted and expressed as a percentage over total number of cells (Hoechst 33258 positive). At least 100 cells were counted per group for each independent experiment.

T1 sequence (O00429 1-699 isoform O00429-4): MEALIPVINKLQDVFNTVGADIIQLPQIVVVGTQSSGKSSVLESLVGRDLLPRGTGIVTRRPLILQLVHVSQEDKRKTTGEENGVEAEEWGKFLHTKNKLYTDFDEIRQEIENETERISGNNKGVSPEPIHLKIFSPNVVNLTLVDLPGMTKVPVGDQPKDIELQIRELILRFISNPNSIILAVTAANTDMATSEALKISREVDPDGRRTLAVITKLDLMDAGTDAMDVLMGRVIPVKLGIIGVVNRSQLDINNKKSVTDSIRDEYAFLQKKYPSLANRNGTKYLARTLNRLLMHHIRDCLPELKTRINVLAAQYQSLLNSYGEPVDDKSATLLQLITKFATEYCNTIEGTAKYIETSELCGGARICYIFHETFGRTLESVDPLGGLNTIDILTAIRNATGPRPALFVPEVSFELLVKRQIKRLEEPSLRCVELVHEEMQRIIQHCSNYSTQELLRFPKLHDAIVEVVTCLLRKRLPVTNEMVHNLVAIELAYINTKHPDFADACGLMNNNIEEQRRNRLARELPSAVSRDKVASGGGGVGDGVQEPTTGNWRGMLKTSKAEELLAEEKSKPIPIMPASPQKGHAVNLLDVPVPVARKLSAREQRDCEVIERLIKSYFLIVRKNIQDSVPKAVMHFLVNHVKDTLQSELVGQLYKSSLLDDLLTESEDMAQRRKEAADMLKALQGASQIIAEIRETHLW

## Cc1nc[nH]c1CN1C[C@@H]2CC[C@H](C1)N(Cc1ccc(-c3cc[nH]n3)o1)C2 [DRP1i27]
HL-1 cells
  percentage of cells with fragmented mitochondria: 36.62 ± 7.37%
[1]; PBS, 2% DMSO
  aggregation threshold: 130 µM
[1]; PBS, 5% DMSO
  aggregation threshold: 350 µM
[1]; with 0.05% Tween-20, DMSO content not specified
  aggregation threshold: at least 500 µM
Human Drp1 isoform 3
  Kd: 286 µM and 287 µM
[2]
  cell death induced by hydrogen peroxide: significant reduction
